Source: article PMC4795541, “A Rapid and Quantitative Flow Cytometry Method for the Analysis of Membrane Disruptive Antimicrobial Activity” (PLoS ONE, 2016)
Marks after values point to notes of the source that are not given here. Where a SMILES comes first, the peptide text is derived from it. Where no end group is shown, it is not given here. [ ]: non-standard residue; d: D form. Phe(ol) = N[C@H](CO)Cc1ccccc1; Dab = NCC[C@H](N)C(=O)O; Dap = NC[C@H](N)C(=O)O; Aib = CC(C)(N)C(=O)O

Columns and labels:
[1] = system: F. nucleatum ATCC 25586; assay: MDC, flow cytometry Syto9/PI membrane disruption assay; assay type: cell-based, Fusobacterium nucleatum; conditions: for MDC: F. nucleatum ATCC 25586, 90 min peptide/bacteria incubation, Syto9/PI flow cytometry, extrapolated to 100% PI+ cells, average of 3 assays ± SD; for Antimicrobial activity (MDC50): against F. nucleatum, maximum peptide concentration = 1000 µM
From the text: We reasoned that as AMPs disrupt the cytoplasmic membrane we should be able to monitor this disruption using membrane permeable/impermeable fluorescent intercalating DNA dyes that are used to determine the viability of a microbial culture. We initially synthesised melittin (peptide sequence shown in S1 Table) a well characterised, broad-spectrum and potent AMP to investigate whether viability dyes, Syto9 (membrane permeable) and propidium iodide (PI, membrane impermeable), could be used to determine AMP activity, against the melittin-susceptible bacterium Fusobacterium nucleatum. […] Staining cells with 0.1% v/v Syto 9 in 0.9% […] (3.34mM stock solution) and 0.1% v/v PI in saline (50μg/mL stock solution) provided optimal concentrations that gave consistent and distinct cell populations; a membrane intact (Syto9+/PI-) and two membrane disrupted populations (Syto9+/PI+ and Syto9-/PI+; S1 Fig). […] Following from this we then incubated F. nucleatum with variant melittin concentrations and determined the proportion of membrane intact (Syto9+/PI-) and membrane disrupted (PI+ i.e. Syto9+/PI+ and Syto9-/PI+) populations. […] Linear regression of the PI+ values for the peptide concentrations prior to full membrane disruption (% PI+ cells ≤ 99% and ≥ 1–5%) gave an R^2 value of >0.9 and from extrapolation the minimum peptide concentration that induced 100% membrane disruption (MDC) could be determined (Fig 1c, insert). […] Melittin and magainin II are known to have high and low activities against the Gram positive bacterium Streptococcus mutans, respectively. […] Although the standard procedure is a 90 minute incubation of bacteria and AMP, we investigated whether the incubation time could be shortened.
For determination of MDC a 50 μL aliquot of the bacteria/AMP was mixed with 100 μL of 0.9% w/v saline containing 0.1% v/v of SYTO® 9 (3.34mM stock solution) and 0.1% v/v of PI (50μg/mL stock solution) and incubated for 10 minutes at room temperature in the dark. Following incubation the bacterial cell samples were analysed using a Cell Lab Quanta SC MPL flow cytometer (Beckman Coulter) equipped with a 100 W stabilized mercury arc lamp with wavelengths of 365, 404, and 435 nm, and a 488 nm diode laser. The fluorescence from SYTO® 9 was measured through a 525-nm band-pass filter (Fluorescent Channel 1, FL-1), and the red emission of PI was measured with a 670-nm long pass filter (Fluorescent Channel 3, FL-3). A minimum of 100,000 bacterial events were collected and the multi-parametric data analyzed using the Cell Lab Quanta SC software. NB for flow cytometers not fitted with an electrical volume detector for cell counting, the addition of microbeads to the samples can be used to determine cell numbers. MDC was calculated by plotting the percent PI+ cells for the each peptide concentration and fitting a linear curve to the data that is ≤ 99% PI+ cells and ≥ 1–5% PI+ cells (minimum of 4 data points). Inclusion of data points outside of these PI+ cell percentages will result in a positive or negative skewing of the MDC value. By solving the line equation (y = mx + C) for x (peptide concentration) when y = 1 (where 1 = 100% of PI+ cells) the MDC (x) can be determined i.e. MDC = x = (y − C)/m.

[2] = system: sheep red blood cells; assay: Hemolysis assay; assay type: cell-based; conditions: for Therapeutic Index (hemolysis): HC50/MDC50 (F. nucleatum), given as x : 1
Experimental: Fresh sheep red blood cells in Alsever’s solution (RBCs, Equicell, Victoria, Australia) were diluted 1 in 20 in PBS (pH 7.4), pelleted by centrifugation, and washed three times in PBS (1000 g, 10 min). The RBCs were counted using a cell counter (Coulter Particle Counter Z series, Beckman Coulter) and diluted to a final concentration of 2 × 10^7 cells/mL. […] Following incubation, the RBCs were pelleted centrifuged (1000 g, 10 min) and the amount of haemoglobin in 100 μL aliquots determined by measuring the absorbance at 405 nm using a microplate reader (PerkinElmer 1420 Multilabel Counter VICTOR3). Positive and negative controls for hemolysis were taken as RBC lysed with 0.5% Triton X-100 (1:1 v/v) and RBC suspension in PBS, respectively. The percentage of hemolysis was calculated using the following formula: % Hemolysis = [(A405 test sample—A405 negative control) / (A405 positive control—A405 negative control)] × 100
The percentage hemolysis was plotted against peptide concentration and linear regression analysis was used to determine the hemolytic concentration needed to lyse 50% (HC50) of RBCs.

[3] = sheep RBCs 2 × 10^7 cells/mL in PBS pH 7.4, 2 h at 37°C, 5% CO2, A405, linear regression, maximum peptide concentration = 1000 µM

CC[C@H](C)[C@H](NC(=O)CN)C(=O)NCC(=O)N[C@@H](CCN)C(=O)N[C@@H](Cc1ccccc1)C(=O)N[C@@H](CC(C)C)C(=O)N[C@@H](Cc1c[nH]cn1)C(=O)N[C@@H](CO)C(=O)N[C@@H](C)C(=O)N[C@@H](CCN)C(=O)N[C@@H](CCN)C(=O)N[C@@H](Cc1ccccc1)C(=O)NCC(=O)N[C@@H](CCN)C(=O)N[C@@H](C)C(=O)N[C@@H](Cc1ccccc1)C(=O)N[C@H](C(=O)NCC(=O)N[C@@H](CCC(=O)O)C(=O)N[C@H](C(=O)N[C@@H](CCSC)C(=O)N[C@@H](CC(N)=O)C(=O)N[C@@H](CO)C(N)=O)[C@@H](C)CC)C(C)C [Magainin-Dab] (H-GIG[Dab]FLHSA[Dab][Dab]FG[Dab]AFVGEIMNS-NH2; N-terminus assumed)
MDC [1]: 11.0 ± 1.0 µM
Antimicrobial activity (MDC50) [1]: 5.5 ± 0.5 µM
Therapeutic Index (hemolysis) [2]: >182 : 1
Hemolysis (HC50) ([2]; pH 7.4): >1000 µM

CC(=O)NC(C)(C)C(=O)N1CCC[C@H]1C(=O)NC(C)(C)C(=O)N[C@@H](C)C(=O)NC(C)(C)C(=O)N[C@@H](C)C(=O)N[C@@H](CCC(N)=O)C(=O)NC(C)(C)C(=O)N[C@H](C(=O)NC(C)(C)C(=O)NCC(=O)N[C@@H](CC(C)C)C(=O)NC(C)(C)C(=O)N1CCC[C@H]1C(=O)N[C@H](C(=O)NC(C)(C)C(=O)NC(C)(C)C(=O)N[C@@H](CCC(=O)O)C(=O)N[C@@H](CCC(N)=O)C(=O)N[C@H](CO)Cc1ccccc1)C(C)C)C(C)C [Alamethicin] (Ac-[Aib]P[Aib]A[Aib]AQ[Aib]V[Aib]GL[Aib]PV[Aib][Aib]EQ[Phe(ol)]; N-terminus assumed)
MDC [1]: 21.1 ± 4.1 µM

GIGKFLHSAKKFGKAFVGEIMNS-NH2 [Magainin II]
Hemolysis (HC50) [2, 3]: 479.5 ± 42.9 µM

GIGRFLHSARRFGRAFVGEIMNS-NH2 [Magainin-Arg]
MDC [1]: 4.9±0.2^c μM
Antimicrobial activity (MDC50) [1]: 2.5 ± 0.1 µM
Therapeutic Index (hemolysis) [2]: 100.8 : 1
Hemolysis (HC50) ([2]; pH 7.4): 251.9 ± 48.2 µM

GIGXFLHSAXXFGXAFVGEIMNS-CONH2 [Magainin-Orn, magainin II analogue, all lysine residues substituted with ornithine]
MDC [1]: 11.4 ± 0.3 µM
Antimicrobial activity (MDC50) [1]: 5.7 ± 0.2 µM
Therapeutic Index (hemolysis) [2]: 126.5 : 1
Hemolysis (HC50) [2, 3]: 721.1 ± 65.3 µM

CC[C@H](C)[C@H](NC(=O)CN)C(=O)NCC(=O)N[C@@H](CN)C(=O)N[C@@H](Cc1ccccc1)C(=O)N[C@@H](CC(C)C)C(=O)N[C@@H](Cc1c[nH]cn1)C(=O)N[C@@H](CO)C(=O)N[C@@H](C)C(=O)N[C@@H](CN)C(=O)N[C@@H](CN)C(=O)N[C@@H](Cc1ccccc1)C(=O)NCC(=O)N[C@@H](CN)C(=O)N[C@@H](C)C(=O)N[C@@H](Cc1ccccc1)C(=O)N[C@H](C(=O)NCC(=O)N[C@@H](CCC(=O)O)C(=O)N[C@H](C(=O)N[C@@H](CCSC)C(=O)N[C@@H](CC(N)=O)C(=O)N[C@@H](CO)C(N)=O)[C@@H](C)CC)C(C)C [Magainin-Dap] (H-GIG[Dap]FLHSA[Dap][Dap]FG[Dap]AFVGEIMNS-NH2; N-terminus assumed)
MDC [1]: 29.8±6.9^c μM
Antimicrobial activity (MDC50) [1]: 14.9 ± 3.5 µM
Therapeutic Index (hemolysis) [2]: >67 : 1
Hemolysis (HC50) ([2]; pH 7.4): >1000 µM
